Columns and labels:
cyclooxygenase 2 (COX-2) = conditions: 300 μM; COX-2 from sheep placenta
Method: (§1) In this experiment, nitrones of formula I were tested to determine if they inhibit the enzymes cyclooxygenase 1 (COX-1) and cyclooxygenase 2 (COX-2). The inhibition of COX-1 was measured by incubating arachidonic acid with COX-1 dervied from ram seminal vesicles. The inhibition of COX-2 was measured by incubation of arachidonic acid with COX-2 derived from sheep placenta. These assays are further described in Evans et al., Biochem. Pharmacol., 36:2035, 1987. In each assay, the formation of prostaglandin E2 (PGE2) was measured by spectrophotometric quantitation of malondialdehyde. The compounds to be tested were added to incubation solutions at a concentration of 300 μM.

cyclooxygenase 1 (COX-1) = conditions: 300 μM; COX-1 from ram seminal vesicles
Method: as §1

## COc1ccc2c(c1)c(CC(=O)O)c(C)n2C(=O)c1ccc(Cl)cc1 [indomethacin]
Cyclooxygenase 2 (COX-2)
  inhibition of COX-2: completely inhibits
Cyclooxygenase 1 (COX-1)
  inhibition of COX-1: completely inhibits
